Data: PMC5914168 (ChemMedChem, 2017)
Read-outs that look alike come from different tables or passages of the source.

Legend:
[1] = target: BMP2K kinase domain (38-345) (Homo sapiens, UniProt Q9NSY1); test: TR-FRET ligand binding displacement assay, BMP2K
[2] = target: AAK1 kinase domain (31-396) (Homo sapiens, UniProt Q2M2I8); test: TR-FRET ligand binding displacement assay, AAK1
[3] = target: STK16 kinase domain (13-305) (Homo sapiens, UniProt O75716); test: TR-FRET ligand binding displacement assay, STK16
Chain of STK16 kinase domain (13-305) (O75716 13-305): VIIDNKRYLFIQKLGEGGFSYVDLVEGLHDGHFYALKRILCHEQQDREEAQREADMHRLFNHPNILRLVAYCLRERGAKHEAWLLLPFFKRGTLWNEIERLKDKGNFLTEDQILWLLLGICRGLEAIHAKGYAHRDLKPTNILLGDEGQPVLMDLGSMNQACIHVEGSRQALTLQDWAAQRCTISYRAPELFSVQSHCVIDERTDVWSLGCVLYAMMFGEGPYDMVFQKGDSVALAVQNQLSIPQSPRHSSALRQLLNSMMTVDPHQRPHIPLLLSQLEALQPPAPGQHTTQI

[4] = target: T1, GAK kinase domain (12-347) (Homo sapiens, UniProt O14976); test: TR-FRET ligand binding displacement assay, GAK; settings: for fold drop in GAK potency: relative to 1; for NAK selectivity (ratio of GAK Ki and Ki of nearest NAK family member): selectivity against the nearest NAK family member
T1 sequence (O14976 12-347): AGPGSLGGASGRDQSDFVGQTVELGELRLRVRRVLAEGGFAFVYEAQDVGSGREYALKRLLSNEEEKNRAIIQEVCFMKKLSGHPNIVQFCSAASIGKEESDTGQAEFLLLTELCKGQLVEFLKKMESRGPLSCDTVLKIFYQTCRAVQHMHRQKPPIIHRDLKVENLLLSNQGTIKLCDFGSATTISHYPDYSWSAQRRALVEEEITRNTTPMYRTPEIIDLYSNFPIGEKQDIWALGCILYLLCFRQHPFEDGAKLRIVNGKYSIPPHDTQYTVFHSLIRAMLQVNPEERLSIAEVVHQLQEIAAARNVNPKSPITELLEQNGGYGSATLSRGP

[5] = read-out: Binding displacement assay Ki BMP2K, TR-FRET, 16-point dose response

Chain of BMP2K kinase domain (38-345) (Q9NSY1 38-345): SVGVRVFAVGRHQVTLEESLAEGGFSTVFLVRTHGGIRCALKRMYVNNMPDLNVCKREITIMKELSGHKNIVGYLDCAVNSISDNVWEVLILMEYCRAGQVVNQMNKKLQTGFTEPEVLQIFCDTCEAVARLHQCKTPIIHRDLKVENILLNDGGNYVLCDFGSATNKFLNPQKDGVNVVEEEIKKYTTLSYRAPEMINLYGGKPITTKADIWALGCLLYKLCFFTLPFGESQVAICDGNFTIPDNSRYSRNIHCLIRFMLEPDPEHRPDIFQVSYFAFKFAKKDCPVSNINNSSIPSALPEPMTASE
Chain of AAK1 kinase domain (31-396) (Q2M2I8 31-396): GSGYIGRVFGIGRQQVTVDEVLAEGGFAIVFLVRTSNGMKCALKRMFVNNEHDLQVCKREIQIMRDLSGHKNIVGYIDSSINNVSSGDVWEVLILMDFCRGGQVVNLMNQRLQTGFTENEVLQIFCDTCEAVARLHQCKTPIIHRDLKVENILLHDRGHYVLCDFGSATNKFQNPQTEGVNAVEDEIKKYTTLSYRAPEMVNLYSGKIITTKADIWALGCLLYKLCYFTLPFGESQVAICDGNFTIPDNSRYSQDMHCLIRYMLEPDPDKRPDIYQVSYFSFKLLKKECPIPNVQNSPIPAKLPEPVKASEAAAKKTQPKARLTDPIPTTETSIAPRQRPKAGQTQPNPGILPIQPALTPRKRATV

Molecule	Ki [2] [µM]	Ki [1] [µM]	Ki [3] [µM]	Ki [4] [µM]	NAK selectivity (ratio of GAK Ki and Ki of nearest NAK family member) [4]	further results
6,7-Dimethoxy-N-(3,4,5-trimethoxyphenyl)quinolin-4-amine [Compound 57]	–	–	–	–	–	Ki [1, 5]: 19 µM
COc1cc(Nc2ccnc3ccc(C(F)(F)F)cc23)cc(OC)c1OC [Compound 1, 6-(Trifluoromethyl)-N-(3,4,5-trimethoxyphenyl)quinolin-4-amine]	54	> 100	17	–	–	–
COc1ccc(Nc2ccnc3ccc(C(F)(F)F)cc23)cc1OC [Compound 5, N-(3,4-Dimethoxyphenyl)-6-(trifluoromethyl)quinolin-4-amine]	24	44	24	0.058	420	fold drop in GAK potency [4]: 10 fold
COc1ccc(Nc2ccnc3ccc(C(F)(F)F)cc23)c(OC)c1 [Compound 6, N-(2,4-Dimethoxyphenyl)-6-(trifluoromethyl)quinolin-4-amine]	71	> 100	70	0.86	81	–
COc1ccc(Nc2ccnc3ccc(C(F)(F)F)cc23)cc1 [Compound 8, N-(4-Methoxyphenyl)-6-(trifluoromethyl)quinolin-4-amine]	56	75	19	0.73	26	fold drop in GAK potency [4]: 100 fold
FC(F)(F)c1ccc2nccc(Nc3ccc4c(c3)OCCO4)c2c1 [Compound 12, N-(2,3-Dihydrobenzo[b][1,4]dioxin-6-yl)-6-(trifluoromethyl)quinolin-4-amine]	–	56	–	–	14	–
COc1cc(Nc2ncnc3ccc(C(F)(F)F)cc23)cc(OC)c1OC [Compound 13, 6-(Trifluoromethyl)-N-(3,4,5-trimethoxyphenyl)quinazolin-4-amine]	–	–	–	–	73	–
CS(=O)(=O)c1cccc(Nc2ccnc3ccc(C(F)(F)F)cc23)c1 [Compound 37, N-(3-(Methylsulfonyl)phenyl)-6-(trifluoromethyl)quinolin-4-amine]	–	–	–	–	–	STK16 affinity relative to GAK [3]: ≤ 2 fold
CC(C)(C)Oc1ccc(Nc2ccnc3ccc(C(F)(F)F)cc23)cc1 [Compound 39, N-(4-(tert-Butoxy)phenyl)-6-(trifluoromethyl)quinolin-4-amine]	–	–	–	–	–	range of affinity across all four NAK family kinases ([4]; GAK, AAK1, BMP2K, STK16): ≤ 8 fold
COc1cc(Nc2ccnc3cc(F)ccc23)cc(OC)c1OC [Compound 43, 7-Fluoro-N-(3,4,5-trimethoxyphenyl)quinolin-4-amine]	44	> 100	> 100	–	–	–
COc1cc(Nc2ccnc3ccc(S(C)(=O)=O)cc23)cc(OC)c1OC [Compound 47, 6-(Methylsulfonyl)-N-(3,4,5-trimethoxyphenyl)quinolin-4-amine]	–	> 100	–	–	–	–
COc1ccc2c(Nc3cc(OC)c(OC)c(OC)c3)ccnc2c1 [Compound 50, 7-Methoxy-N-(3,4,5-trimethoxyphenyl)quinolin-4-amine]	58	> 100	> 100	–	22000	–
C#Cc1cccc(Nc2ccnc3cc(OC)c(OC)cc23)c1 [Compound 55, N-(3-Ethynylphenyl)-6,7-dimethoxyquinolin-4-amine]	0.9	2.4	19	0.0035	260	–

The next lines start with results.

Ki [2] [µM]	Ki [1] [µM]	Ki [3] [µM]	Ki [4] [µM]	NAK selectivity (ratio of GAK Ki and Ki of nearest NAK family member) [4]	Molecule	further results
34	85	52	0.054	640	COc1cc(Nc2ccnc3ccc(C(F)(F)F)cc23)cc(OC)c1 [Compound 4, N-(3,5-Dimethoxyphenyl)-6-(trifluoromethyl)quinolin-4-amine]	fold drop in GAK potency [4]: 10 fold
80	> 100	58	0.14	420	COc1ccc(OC)c(Nc2ccnc3ccc(C(F)(F)F)cc23)c1 [Compound 7, N-(2,5-Dimethoxyphenyl)-6-(trifluoromethyl)quinolin-4-amine]	–
–	11	–	–	–	COc1ccccc1Nc1ccnc2ccc(C(F)(F)F)cc12 [Compound 10, N-(2-Methoxyphenyl)-6-(trifluoromethyl)quinolin-4-amine]	–
–	–	–	–	26	COc1cc(Nc2ncnc3ccc(C(F)(F)F)cc23)cc(OC)c1 [Compound 14, N-(3,5-Dimethoxyphenyl)-6-(trifluoromethyl)quinazolin-4-amine]	Ki ([2]; read-out: Binding displacement assay Ki AAK1, TR-FRET, 16-point dose response): > 100 µM; Ki [1, 5]: > 100 µM; Ki ([3]; read-out: Binding displacement assay Ki STK16, TR-FRET, 16-point dose response): 8 µM
–	> 100	–	–	1.5	COc1ccc(Nc2ncnc3ccc(C(F)(F)F)cc23)cc1 [Compound 15, N-(4-Methoxyphenyl)-6-(trifluoromethyl)quinazolin-4-amine]	–
83	> 100	> 100	–	–	COc1cc(Nc2ccnc3ccc(F)cc23)cc(OC)c1OC [Compound 42, 6-Fluoro-N-(3,4,5-trimethoxyphenyl)quinolin-4-amine]	–
> 100	> 100	> 100	–	–	COc1ccc2nccc(Nc3cc(OC)c(OC)c(OC)c3)c2c1 [Compound 48, 6-Methoxy-N-(3,4,5-trimethoxyphenyl)quinolin-4-amine]	–
–	–	–	–	15000	COc1cc(Nc2ccnc3cc(C(F)(F)F)ccc23)cc(OC)c1OC [Compound 51, 7-(Trifluoromethyl)-N-(3,4,5-trimethoxyphenyl)quinolin-4-amine]	–
–	> 100	–	–	9300	COc1cc(Nc2ccnc3cc(C#N)ccc23)cc(OC)c1OC [Compound 52, 4-((3,4,5-Trimethoxyphenyl)amino)quinoline-7-carbonitrile]	–
0.26	0.68	1.5	0.4	–	COc1cc2nccc(Nc3cccc(C(C)=O)c3)c2cc1OC [Compound 56, 1-(3-((6,7-dimethoxyquinolin-4-yl)amino)phenyl)ethan-1-one]	fold reduction in GAK activity ([4]; relative to 49): 100 fold
